Assay results from the supplement of paper PMC4862054.
“And” between values parts separate entries of the source, which are not always exact repeats. Equal values may be shown once.

Key:
Test in all cases: normalised viability (% of control), CellTiter-Blue; higher = more viable cells (about 100 = DMSO control)
Settings in all cases: incubation time: 72 h
CAL-148 [1] = test system: CAL-148
Description: (§1)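 DSRT, CellTiter-Blue viability, 72 h incubation. Signal is normalised to DMSO and benzethonium chloride controls. Value is the normalised response at dose 6.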

CAL-51 [2] = test system: CAL-51
Description: as §1

CAL-85-1 [3] = test system: CAL-85-1
Description: as §1

DU-4475 [4] = test system: DU-4475
Description: as §1

HDQ-P1 [5] = test system: HDQ-P1
Description: as §1

MDA-MB-453 [6] = test system: MDA-MB-453
Description: as §1

CAL-148 [7] = test system: CAL-148; remark: listed apart in the source
Description: (§2)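 DSRT, CellTiter-Blue viability, 72 h incubation. Signal is normalised to DMSO and benzethonium chloride controls. Value is the normalised response at dose 7.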

CAL-51 [8] = test system: CAL-51; remark: listed apart in the source
Description: as §2

CAL-85-1 [9] = test system: CAL-85-1; remark: listed apart in the source
Description: as §2

DU-4475 [10] = test system: DU-4475; remark: listed apart in the source
Description: as §2

HDQ-P1 [11] = test system: HDQ-P1; remark: listed apart in the source
Description: as §2

MDA-MB-453 [12] = test system: MDA-MB-453; remark: listed apart in the source
Description: as §2

`O=NN(CCCl)C(=O)NC1CCCCC1` [Lomustine] (300 nM) was tested, and the normalised viability (CAL-148 [1]) was 106%, the normalised viability (CAL-51 [2]) was 105% and the normalised viability (CAL-85-1 [3]) was 104%. For the same compound, the normalised viability (DU-4475 [4]) was 110%, the normalised viability (HDQ-P1 [5]) was 84.1% and the normalised viability (MDA-MB-453 [6]) was 112%.
Work on `O=C(O)CC[C@H]1CC[C@@](c2cc(F)ccc2F)(S(=O)(=O)c2ccc(Cl)cc2)CC1` [MK-0752] (30 nM) yielded a normalised viability (CAL-148 [1]) of 115%, a normalised viability (CAL-51 [2]) of 106% and a normalised viability (CAL-85-1 [3]) of 100%. The normalised viability (DU-4475 [4]) was 117%, the normalised viability (HDQ-P1 [5]) was 93% and the normalised viability (MDA-MB-453 [6]) was 103%.
`NC1(c2ccc(-c3nc4ccn5c(=O)[nH]nc5c4cc3-c3ccccc3)cc2)CCC1` [MK-2206] (30 nM) showed a normalised viability (CAL-148 [1]) of 97.4%, a normalised viability (CAL-51 [2]) of 101% and a normalised viability (CAL-85-1 [3]) of 96.2%. The normalised viability (DU-4475 [4]) was 103%, the normalised viability (HDQ-P1 [5]) was 69.6% and the normalised viability (MDA-MB-453 [6]) was 99.4%.
`NC(=O)c1cccc2cn(-c3ccc([C@@H]4CCCNC4)cc3)nc12` [MK-4827] (300 nM) was tested, and the normalised viability (CAL-148 [1]) was 101%, the normalised viability (CAL-51 [2]) was 100% and the normalised viability (CAL-85-1 [3]) was 96.8%. The normalised viability (DU-4475 [4]) was 73.6%, the normalised viability (HDQ-P1 [5]) was 75.7% and the normalised viability (MDA-MB-453 [6]) was 106%.
Work on `N[C@@H](Cc1ccc(N(CCCl)CCCl)cc1)C(=O)O` [Melphalan] (29.7 nM) yielded a normalised viability (CAL-148 [1]) of 98.7%, a normalised viability (CAL-51 [2]) of 104% and a normalised viability (CAL-85-1 [3]) of 88.3%. For the same compound, the normalised viability (DU-4475 [4]) was 102%, the normalised viability (HDQ-P1 [5]) was 81.1% and the normalised viability (MDA-MB-453 [6]) was 110%.
Work on `N[C@@H](Cc1ccc(N(CCCl)CCCl)cc1)C(=O)O` [Melphalan] (99 nM) yielded a normalised viability (CAL-148 [7]) of 106%, a normalised viability (CAL-51 [8]) of 109% and a normalised viability (CAL-85-1 [9]) of 79.4%. For the same compound, the normalised viability (DU-4475 [10]) was 86.2%, the normalised viability (HDQ-P1 [11]) was 100% and the normalised viability (MDA-MB-453 [12]) was 101%.
`Cc1c(C(=O)Nc2ccc(N3C[C@@H](C)O[C@@H](C)C3)nc2)cccc1-c1ccc(OC(F)(F)F)cc1` [NVP-LDE225] (300 nM) showed a normalised viability (CAL-148 [1]) of 95.2%, a normalised viability (CAL-51 [2]) of 105% and a normalised viability (CAL-85-1 [3]) of 108%. The normalised viability (DU-4475 [4]) was 101%, the normalised viability (HDQ-P1 [5]) was 36.5% and the normalised viability (MDA-MB-453 [6]) was 88.1%.
`Cc1c(C(=O)Nc2ccc(N3C[C@@H](C)O[C@@H](C)C3)nc2)cccc1-c1ccc(OC(F)(F)F)cc1` [NVP-LDE225] (1000 nM) showed a normalised viability (CAL-148 [7]) of 107%, a normalised viability (CAL-51 [8]) of 99.5% and a normalised viability (CAL-85-1 [9]) of 98.8%. It also gave a normalised viability (DU-4475 [10]) of 118%, a normalised viability (HDQ-P1 [11]) of 90.1% and a normalised viability (MDA-MB-453 [12]) of 92.9%.
With `O=C(c1cc(Cc2n[nH]c(=O)c3ccccc23)ccc1F)N1CCN(C(=O)C2CC2)CC1` [Olaparib] (300 nM) the normalised viability (CAL-148 [1]) was 85.3%, the normalised viability (CAL-51 [2]) was 93.2% and the normalised viability (CAL-85-1 [3]) was 92.2%. For the same compound, the normalised viability (DU-4475 [4]) was 83.2%, the normalised viability (HDQ-P1 [5]) was 73.9% and the normalised viability (MDA-MB-453 [6]) was 98%.
With `CO[C@H](C(=O)[C@@H](O)[C@@H](C)O)[C@@H]1Cc2cc3cc(O[C@H]4C[C@@H](O[C@@H]5C[C@@H](O)[C@H](O)[C@@H](C)O5)[C@H](O)[C@@H](C)O4)c(C)c(O)c3c(O)c2C(=O)[C@H]1O[C@H]1C[C@@H](O[C@@H]2C[C@@H](O)[C@@H](O[C@@H]3C[C@](C)(O)[C@H](O)[C@@H](C)O3)[C@@H](C)O2)[C@H](O)[C@@H](C)O1` [Plicamycin] (300 nM) the normalised viability (CAL-148 [1]) was 2.94% and 7.64%, the normalised viability (CAL-51 [2]) was 18.3% and 13.9% and the normalised viability (CAL-85-1 [3]) was 13% and 11.5%. The normalised viability (DU-4475 [4]) was 0.65% and -0.39%, the normalised viability (HDQ-P1 [5]) was 32.7% and 20.9% and the normalised viability (MDA-MB-453 [6]) was 17.4% and 13.2%.
`C[C@]12C=CC(=O)C=C1CC[C@@H]1[C@@H]2C(=O)C[C@@]2(C)[C@H]1CC[C@]2(O)C(=O)CO` [Prednisone] (300 nM) was tested, and the normalised viability (CAL-148 [1]) was 102%, the normalised viability (CAL-51 [2]) was 104% and the normalised viability (CAL-85-1 [3]) was 102%. The normalised viability (DU-4475 [4]) was 108%, the normalised viability (HDQ-P1 [5]) was 50.2% and the normalised viability (MDA-MB-453 [6]) was 91.8%.
In the case of `CO[C@H]1C[C@@H]2CC[C@@H](C)[C@@](O)(O2)C(=O)C(=O)N2CCCC[C@H]2C(=O)O[C@H]([C@H](C)C[C@@H]2CC[C@@H](O)[C@H](OC)C2)CC(=O)[C@H](C)/C=C(\C)[C@@H](O)[C@@H](OC)C(=O)[C@H](C)C[C@H](C)/C=C/C=C/C=C/1C` [Sirolimus] (30 nM), the normalised viability (CAL-148 [1]) is reported as 46.8%, the normalised viability (CAL-51 [2]) is reported as 29.3% and the normalised viability (CAL-85-1 [3]) is reported as 56.1%. The normalised viability (DU-4475 [4]) was 48.5%, the normalised viability (HDQ-P1 [5]) was 60.8% and the normalised viability (MDA-MB-453 [6]) was 29%.
Work on `CN1CCN(c2nc(C3=C(c4c[nH]c5ccccc45)C(=O)NC3=O)c3ccccc3n2)CC1` [Sotrastaurin] (300 nM) yielded a normalised viability (CAL-148 [1]) of 120%, a normalised viability (CAL-51 [2]) of 87% and a normalised viability (CAL-85-1 [3]) of 117%. The normalised viability (DU-4475 [4]) was 99.9%, the normalised viability (HDQ-P1 [5]) was 56.9% and the normalised viability (MDA-MB-453 [6]) was 96.2%.
In the case of `CC/C(=C(\c1ccccc1)c1ccc(OCCN(C)C)cc1)c1ccccc1` [Tamoxifen] (300 nM), the normalised viability (CAL-148 [1]) is reported as 112%, the normalised viability (CAL-51 [2]) is reported as 89.5% and the normalised viability (CAL-85-1 [3]) is reported as 106%. The normalised viability (DU-4475 [4]) was 113%, the normalised viability (HDQ-P1 [5]) was 93.8% and the normalised viability (MDA-MB-453 [6]) was 97.8%.
Compound `COc1cc2c(N3CCN(C(=O)Nc4ccc(OC(C)C)cc4)CC3)ncnc2cc1OCCCN1CCCCC1` [Tandutinib] (30 nM) has a normalised viability (CAL-148 [1]) of 103%, a normalised viability (CAL-51 [2]) of 106% and a normalised viability (CAL-85-1 [3]) of 110%. The normalised viability (DU-4475 [4]) was 96.3%, the normalised viability (HDQ-P1 [5]) was 70.4% and the normalised viability (MDA-MB-453 [6]) was 108%.
`C[C@@H](C(=O)O)c1ccc(-c2ccccc2)c(F)c1` [Tarenflurbil] (300 nM) was tested, and the normalised viability (CAL-148 [1]) was 93.6%, the normalised viability (CAL-51 [2]) was 117% and the normalised viability (CAL-85-1 [3]) was 101%. It also gave a normalised viability (DU-4475 [4]) of 89.8%, a normalised viability (HDQ-P1 [5]) of 64.5% and a normalised viability (MDA-MB-453 [6]) of 104%.
In the case of `Cn1nnc2c(C(N)=O)ncn2c1=O` [Temozolomide] (300 nM), the normalised viability (CAL-148 [1]) is reported as 89.2%, the normalised viability (CAL-51 [2]) is reported as 88.4% and the normalised viability (CAL-85-1 [3]) is reported as 104%. The normalised viability (DU-4475 [4]) was 116%, the normalised viability (HDQ-P1 [5]) was 72.5% and the normalised viability (MDA-MB-453 [6]) was 93.8%.
With `CC[C@@H]1C(=O)N(C)c2cnc(Nc3ccc(C(=O)N[C@H]4CC[C@H](N5CCN(CC6CC6)CC5)CC4)cc3OC)nc2N1C(C)C` [Volasertib] (30 nM) the normalised viability (CAL-148 [1]) was 25.4%, the normalised viability (CAL-51 [2]) was 40.5% and the normalised viability (CAL-85-1 [3]) was 45.9%. For the same compound, the normalised viability (DU-4475 [4]) was 58.8%, the normalised viability (HDQ-P1 [5]) was 49.7% and the normalised viability (MDA-MB-453 [6]) was 31.5%.
